Literature values in patent publication US20080138383A1, “COMPOSITIONS AND METHODS FOR TREATING SEIZURES” (priority 2006, published 2008).
Like-named read-outs stand apart in the source and are kept apart here.

How the values were obtained:
[1] = in vivo

SMILES: O=C1CN=C(c2ccccc2)c2cc(Cl)ccc2N1 [desmethyldiazepam]
- activity relative to the parent drug (main active metabolite versus diazepam): somewhat less active than the parent drug

SMILES: O=C1Nc2ccc(Cl)cc2C(c2ccccc2Cl)=NC1O (centres unmarked) [lorazepam]
- onset of action (after intramuscular administration): up to 1 hour
- onset of action (after intravenous administration): several minutes
- dose equivalent to 5 mg of diazepam (estimates): approximately 0.5 mg

SMILES: Cc1ncc2n1-c1ccc(Cl)cc1C(c1ccccc1F)=NC2 [midazolam]
- elimination half-life [1]: 1.5 to 3.5 h
